Patent US5069812A, “Bleach/builder precursors” (priority 1990, dated 1991)

How the values were obtained:
[1] = Biodegradability (statement, no test described); conditions: chelidamic acid moiety
[2] = Determination of calcium binding (Ca ion selective electrode titration); assay type: physicochemical; conditions: pH 10, 0.05 g/l solution, ionic strength 0.02-0.03M (NaCl), titrated with 0.02M CaCl2
Protocol: Calcium binding data was obtained at a pH of 10 by titrating 100 ml of 0.05 g/l precursor solution at an ionic strength of 0.02-0.03M (NaCl) with a 0.02M CaCl2 solution. A Radiometer calcium ion selective electrode was used to measure free Ca^++ ion concentration of the solutions. Data was corrected for dilution during each titration.

[3] = Stain bleaching on tea-stained cotton (Terg-O-Tometer wash, reflectance change); conditions: 40° C., 15 minutes, BC1 cloth, pH = 9.0-9.5, [precursor] = 6.2 × 10^-4 M, [H2O2] = 6.25 × 10^-3 M; corrected for H2O2 and detergent alone
Protocol: Typically, cotton test pieces (4 in.×4 in.) stained with the tea are washed in a Terg-O-Tometer in 1 l. of aqueous solution containing a given level of bleach precursor, hydrogen peroxide, buffer, and surfactant (generally sodium dodecylbenzenesulfonate).
Washes are carried out at 40° C. for 15 minutes. Stain bleaching is measured reflectrometrically using a Colorgard System/05 Reflectometer. Bleaching is indicated by an increase in reflectance, reported as ΔR. In general a ΔR of one unit is perceivable in a paired comparison while ΔR of two units is perceivable monadically. In reporting the reflectance change, the change in reflectance caused by general detergency and bleaching by the excess hydrogen peroxide has been accounted for. Thus ΔR can actually be expressed as: ΔR=(the value of the Reflectance of stained fabric washed with precursor, H2 O2 and detergent minus the value of the Reflectance of stained fabric before washing) minus (the value of the Reflectance of stained fabric washed with H2 O2 and detergent alone minus the value of the Reflectance of stained fabric before washing).
The formulation of the detergent base used for the bleaching test is as follows: […]

[4] = Peracid generation from precursors (perhydrolysis yield); conditions: 40° C., [BPD] = 6.24 × 10^-4 M, [H2O2] = 6.24 × 10^-3 M
Protocol: The precursors described herein can be used to generate peroxycarbonic acid bleaches in basic aqueous solution containing a source of hydrogen peroxide and, optimally, may contain typical detergent ingredients. […] The hydrogen peroxide source is added just prior to addition of the precursor. Ten milliliter aliquots of solution are withdrawn from the beaker at regular intervals and are added to a 250 ml titration flask containing crushed ice (150 g), glacial acetic acid (30 ml) and 4% aqueous potassium iodide (5 ml). After development for ten minutes with occasional agitation, the iodine produced is titrated with standard sodium thiosulfate solution. Time zero is taken as the point of introduction of precursor into the peroxyide solution. Precursor perhydrolysis experiments are generally carried out for a maximum of 15 minutes.
Since hydrogen peroxide itself contributes to the total active oxygen in these titrations, controls or "blanks" are obtained by carrying out a perhydrolysis experiment in the absence of precursor. These hydrogen peroxide blanks are subtracted from the total active oxygen titration in the presence of bleach precursor to give the level of active oxygen produced by precursor perhydrolysis.
Peroxycarbonic acid generation is determined at pH 8, 9, and 10. Borax buffer is used for experiments at pH 9 and 10 while phosphate buffer is employed for experiments carried out at pH 8. Adjustment of the buffer systems at 40° C. to the exact pH is carried out with 1M hydrochloric acid or sodium hydroxide solution.

Compound: O=C(O)c1cc(O)cc(C(=O)O)n1 [Chelidamic Acid, 1,4-Dihydro-4-oxo-2,6-pyridine dicarboxylic acid]
- biodegradability [1]: biodegradable
- Binding Constants Log KCa [2]: 5.70

Compound: C[N+](C)(C)CCOC(=O)Oc1cc(C(=O)O)nc(C(=O)O)c1 [CCPD, Disodium, 4-Choline Carbonate-2,6-Pyridinedicarboxylic Acid]
- Bleaching Performance Δ R [3]: > 15.0

Compound: O=C(Oc1cc(C(=O)O)nc(C(=O)O)c1)c1cccc(CCl)c1 [CBPD, Disodium, 4-(3-Chloromethyl)benzoyloxy-2,6-Pyridinedicarboxylic Acid]
- Bleaching Performance Δ R [3]: > 6.0

Compound: O=P(O)(O)OP(=O)(O)OP(=O)(O)O [Sodium Tripolyphosphate]
- Binding Constants Log KCa [2]: 5.85

Compound: O=C(Oc1cc(C(=O)O)nc(C(=O)O)c1)c1ccccc1.[Na].[Na] [BPD, Disodium, 4-Benzoyloxy-2,6-Pyridinedicarboxylic Acid]
- Perhydrolysis yields from BPD (peroxycarbonic acid yield as a percent of theoretical), 1 minute ([4]; pH 10, 1 minute): 91.35%
- Perhydrolysis yields from BPD (peroxycarbonic acid yield as a percent of theoretical), 8 minutes ([4]; pH 10, 8 minutes): 17.63%
- Perhydrolysis yields from BPD (peroxycarbonic acid yield as a percent of theoretical), 15 minutes ([4]; pH 10, 15 minutes): 0%
- Bleaching Performance Δ R [3]: > 6.0
